This note sets out measurements from US20060159735A1, “Method of reclaiming drug compound from liposomal drug manufacturing stream” (priority 2005, published 2006).

Where only a bound is given, the exact number is not on record here.

One may read the solubility as how much of the substance goes into solution per volume.

Assay type in all cases: physicochemical
Data set [1] is described as follows: Partitioning of HSPC and cholesterol into chloroform in the presence of OSI-7904. As to conditions: for retained in the aqueous phase: first extraction, 17 mg/mL OSI-7904 with ~0.5 mg/mL HSPC:cholesterol mix, 1:3 CHCl3:Aq, shaking 1 hour; for amounts retained in the aqueous phase: second extraction with chloroform of the aqueous phase. On the procedure:
A 17 mg/mL OSI-7904 solution containing ˜0.5 mg/mL, 2:1 molar ratio HSPC:cholesterol mix was produced and extracted by mechanical shaking for 1 hour with chloroform at the 1:3 (CHCl3:Aq) ratio. Before partition the aqueous phase was hazy and yellow in color. After extraction the upper aqueous phase was clear and yellow.
The upper aqueous phase was analyzed for HSPC, cholesterol and OSI-7904. Approximately 94% of OSI-7904 was retained in the aqueous phase and approximately 2%, 8% and 8% retained of cholesterol, DSPC and PSPC respectively. This aqueous phase was extracted a second time with chloroform. The amounts retained in the aqueous phase for PSPC, DSPC and cholesterol were approximately 65%, 100% and 67% respectively for this second extraction.

Data set [2] in a line: Partitioning of HSPC and cholesterol dispersions into chloroform. Conditions: 1:3 CHCl3:Aq volume ratio, HPLC; for extraction efficiency with chloroform: 0.1 mg/mL cholesterol:HSPC dispersion. On the procedure: Concentrations of 1 mg/mL and 0.1 mg/mL of the 2:1 molar ratio HSPC:cholesterol spray dried mix dispersions were produced. Then the mixes were extracted with chloroform and varying chloroform:aqueous ratios at 1:3, 1:1 and 3:1. […] The other ratios produced milky emulsions in the aqueous phase.
HSPC consists of two main components: PSPC (1-palmitoyl-2-stearoyl-sn-glyero-3-phosphocholine) and DSPC (1,2-distearoyl-sn-glycero-3-phosphocholine). […] For the 0.1 mg/mL dispersion the extraction was less efficient; being ˜95% for cholesterol, ˜63% for PSPC and ˜24% for DSPC.

Data set [3] in a line: Potentiometric titration of OSI-7904 (Sirius Glpka autotitrator), with and without chloroform; solubility. From the text:
The ability of OSI-7904 to partition into chloroform as a function of pH was studied using a Sirius Glpka autotitrator. Attempts were first made to determine the pKas of the OSI-7904 drug substance using the Sirius autotitrator, since these values are required when determining the partition coefficients by potentiometric titration. […] It is usual practice, with a compound of low solubility, to titrate the compound with various amounts of cosolvent present to determine apparent pKas and then perform an extrapolation back to 100% aqueous to calculate the true thermodynamic pKa. However, even with cosolvent (methanol) present, precipitation of the drug was still a problem and reproducible data sets were not obtained. […] As a result, extraction of OSI-7904 with chloroform is not a practical proposition since large volumes of chloroform would be required to solubilise the drug.
In this case, the Bjerrum plot is for the titration of 10 mL of 0.33 mM OSI-7904 aqueous solution in the presence of 5 mL chloroform. Titration started at low pH. The sharp change in slope at pH˜4.5 and lack of symmetry in the curve is indicative of undissolved compound present which then dissolves as the pH is increased.

Data set [4] is described as follows: Chloroform extraction of OSI-7904 solution with trace (saturated solution) HSPC and cholesterol. Conditions: 1.2 mg/mL OSI-7904, trace HSPC and cholesterol; 1:3 CHCl3:Aq. From the text: The work above had been carried out with dispersions of solid HSPC:cholesterol. It was thought that the actual permeate would only contain materials in free solution. A better model for this was considered to be saturating some water with the HSPC:cholesterol mix, filtering out the solid and working with this clarified solution. A saturated solution prepared in this way typically contained only traces of cholesterol and HSPC. It was noticed however that on one occasion when the dispersion of HSPC:cholesterol in water had been stirred continuously for approximately four days, the filtrate was opalescent and not clear and the levels of the HSPC and cholesterol were much higher. It was thought the most likely explanation for this was that initially multilamellar liposomes were formed and these were filtered out leaving only HSPC and cholesterol that are in free solution or in micelles. On extending mixing, the multilamellar liposomes are broken down to smaller particles and these are able to pass through the pores of the filter.
A 1.2 mg/mL solution of OSI-7904 was prepared containing trace levels of HSPC and cholesterol in solution (no solid present). This was extracted with chloroform in the 1:3 ratio (8.8 mL:26.5 mL, CHCl3:Aq) by manually shaking for 1 min. […] The aqueous phase was filtered through a 0.45 μm aperture filter and analyzed for OSI-7904, cholesterol and HSPC by HPLC. […]

As to `CCCCCCCCCCCCCCCCCC(=O)OC[C@H](COP(=O)([O-])OCC[N+](C)(C)C)OC(=O)CCCCCCCCCCCCCCCCC` [DSPC, 1,2-distearoyl-sn-glycero-3-phosphocholine], in data set [1], the “retained in the aqueous phase” value was ~8% and the “amounts retained in the aqueous phase” value is on record as ~100%. The “extraction efficiency with chloroform” value in data set [2] was ~24%.

Consider `Cc1nc2ccc3ccc(CNc4ccc5c(c4)CN([C@@H](CCC(=O)O)C(=O)O)C5=O)cc3c2c(=O)[nH]1` [OSI-7904], for which the “retained in the aqueous phase” value in data set [1] is reported as “Approximately 94%”. The “solubility in aqueous media” value in data set [3] (at low pHs) is “very insoluble”. For the same molecule, the solubility in chloroform result in data set [3] (even at low pH, titration in presence of chloroform) was “very low”. Further, in data set [3] (with aqueous solution present during titration, organic solvent or mixture, from Bjerrum plot, titration of 10 mL 0.33 mM aqueous solution in presence of 5 mL chloroform), the solubility was < 400 µg/mL.

Regarding `CC(C)CCC[C@@H](C)[C@H]1CC[C@H]2[C@@H]3CC=C4C[C@@H](O)CC[C@]4(C)[C@H]3CC[C@]12C` [cholesterol], in data set [1], the “retained in the aqueous phase” value is reported as “approximately 2%” and the “amounts retained in the aqueous phase” value was ~67%. Moreover, the “change in concentration in the aqueous phase after extraction with chloroform” value in data set [4] is given as “no decrease”. In addition, in data set [2], the “extraction efficiency with chloroform” value is ~95%. The “levels after extraction with chloroform” value in data set [2] (1 mg/mL cholesterol:HSPC dispersion) is listed as “undetectable”.

For `CCCCCCCCCCCCCCCCCC(=O)O[C@H](COC(=O)CCCCCCCCCCCCCCC)COP(=O)([O-])OCC[N+](C)(C)C` [PSPC, 1-palmitoyl-2-stearoyl-sn-glyero-3-phosphocholine], in data set [1], the “retained in the aqueous phase” value is ~8% and the “amounts retained in the aqueous phase” value is recorded as “approximately 65%”. Further, the “extraction efficiency with chloroform” value in data set [2] was ~63%.
